Source: ChEMBL document CHEMBL3994657, “3,4-Dihydroquinazoline derivatives inhibit the activities of cholinesterase enzymes” (Bioorg Med Chem Lett, 2017)

Key:
[1] = biological target: T1, Cholinesterase (Equus caballus, UniProt P81908); experiment: Inhibition of equine serum BCHE using butyrylthiocholine iodide as substrate preincubated for 20 mins followed by substrate addition measured for 5 mins by spectrophotometry based Ellman method
[2] = biological target: Acetylcholinesterase (Electrophorus electricus, UniProt O42275); experiment: Inhibition of electric eel AChE using acetylthiocholine iodide as substrate preincubated for 20 mins followed by substrate addition measured for 5 mins by spectrophotometry based Ellman method
Acetylcholinesterase, sequence (O42275 whole entry): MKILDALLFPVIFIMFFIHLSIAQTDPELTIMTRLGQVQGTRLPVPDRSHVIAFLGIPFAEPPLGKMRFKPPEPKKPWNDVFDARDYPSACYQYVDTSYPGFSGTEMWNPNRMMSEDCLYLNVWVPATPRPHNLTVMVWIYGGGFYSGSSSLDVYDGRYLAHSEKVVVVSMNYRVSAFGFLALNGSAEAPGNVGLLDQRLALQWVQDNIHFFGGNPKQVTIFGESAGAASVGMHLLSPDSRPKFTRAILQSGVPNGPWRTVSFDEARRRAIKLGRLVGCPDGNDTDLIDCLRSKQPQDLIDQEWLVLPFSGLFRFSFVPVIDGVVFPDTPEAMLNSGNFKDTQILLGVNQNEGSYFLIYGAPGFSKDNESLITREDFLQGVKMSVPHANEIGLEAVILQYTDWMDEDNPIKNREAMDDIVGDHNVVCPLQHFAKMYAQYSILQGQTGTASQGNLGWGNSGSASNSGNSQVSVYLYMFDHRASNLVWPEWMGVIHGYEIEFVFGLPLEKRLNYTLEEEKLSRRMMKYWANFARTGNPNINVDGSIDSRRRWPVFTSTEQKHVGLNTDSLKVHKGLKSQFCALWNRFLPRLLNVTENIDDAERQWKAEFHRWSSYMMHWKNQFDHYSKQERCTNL

[3] = biological target: T1, Cholinesterase; experiment: Mixed/noncompetitive inhibition of equine serum BCHE using butyrylthiocholine iodide as substrate preincubated for 20 mins followed by substrate addition measured for 5 mins by Lineweaver-Burk plot analysis; details: read-out: Ki(app)
[4] = Selectivity ratio of IC50 for electric eel AChE to IC50 for equine serum BCHE

T1 sequence (P81908 whole entry): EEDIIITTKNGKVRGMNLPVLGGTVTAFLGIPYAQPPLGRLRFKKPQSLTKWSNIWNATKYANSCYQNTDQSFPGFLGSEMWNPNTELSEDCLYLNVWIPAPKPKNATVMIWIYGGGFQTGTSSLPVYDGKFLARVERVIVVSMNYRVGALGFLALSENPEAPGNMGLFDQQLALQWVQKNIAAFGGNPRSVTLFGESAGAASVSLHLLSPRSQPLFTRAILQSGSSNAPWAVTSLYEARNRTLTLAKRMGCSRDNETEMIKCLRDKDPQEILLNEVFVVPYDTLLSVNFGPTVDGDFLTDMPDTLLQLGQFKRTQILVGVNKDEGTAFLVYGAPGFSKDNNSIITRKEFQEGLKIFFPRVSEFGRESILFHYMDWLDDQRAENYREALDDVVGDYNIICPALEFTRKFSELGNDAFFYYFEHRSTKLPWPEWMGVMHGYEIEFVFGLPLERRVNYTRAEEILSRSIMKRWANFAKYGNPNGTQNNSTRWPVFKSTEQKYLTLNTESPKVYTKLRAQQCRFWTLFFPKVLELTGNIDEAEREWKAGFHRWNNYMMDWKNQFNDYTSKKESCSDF

SMILES | IC50 [1] [nM] | IC50 [2] [nM] | Ki [3] [nM] | Ratio IC50 [4]
O=C(CC1c2ccccc2N=C(N2CCN(CCN3CCCC3)CC2)N1c1ccc(C2CCCCC2)cc1)NCc1ccc(F)cc1 (configuration not stated) | 2130 | 8000 |  | 
CN(C)CCCCCN(C)C1=Nc2c(F)cc(F)cc2C(CC(=O)NCc2ccccc2)N1c1ccc(-c2ccccc2)cc1 (configuration not stated) | 380 | 1200 |  | 
CN(C)CCCCCN(C)C1=Nc2ccccc2C(CC(=O)NCc2ccccc2)N1c1ccc(-c2ccccc2)cc1 (configuration not stated) | 62 | ≥ 10000 | 51 | 161
O=C(CC1c2ccccc2N=C(N2CCN(CCN3CCCC3)CC2)N1c1ccc(-c2ccccc2)cc1)NCc1ccc(F)cc1 (configuration not stated) | 1470 | > 10000 |  | 
CN(CCCCCN1CCCC1)C1=Nc2ccccc2C(CC(=O)NCc2ccccc2)N1c1ccc(-c2ccccc2)cc1 (configuration not stated) | 45 | 6600 | 29 | 146
COC(=O)CC1c2ccccc2N=C(N(C)CCCCCN)N1c1ccc(-c2ccccc2)cc1 (configuration not stated) | 140 | ≥ 10000 |  | 
COc1ccc(CNC(=O)CC2c3ccccc3N=C(N3CCN(CCN(C)C)CC3)N2c2ccc(-c3ccccc3)cc2)cc1 (configuration not stated) | 6100 | > 10000 |  | 
CN(C)CCCCCN(C)C1=Nc2ccccc2C(CC(=O)NCc2ccc(F)cc2)N1c1ccc(-c2ccc(F)cc2)cc1 (configuration not stated) | 240 | 6500 |  | 
COC(=O)CC1c2ccccc2N=C(N2CCN(C)CC2)N1C1CCCCC1 (configuration not stated) | > 10000 | ≥ 10000 |  | 
O=C(CC1c2cccc(F)c2N=C(N2CCN(CCN3CCCC3)CC2)N1c1ccc(C2CCCCC2)cc1)NCc1ccc(F)cc1 (configuration not stated) | 2040 | > 10000 |  | 
CN(CCCCCN)C1=Nc2ccccc2C(CC(=O)NCc2ccccc2)N1c1ccc(-c2ccccc2)cc1 (configuration not stated) | 5300 | 4100 |  | 
CN1CCN(C2=Nc3ccccc3C(CC(=O)NCc3ccccc3)N2c2ccccc2)CC1 (configuration not stated) | > 10000 | > 10000 |  | 
CN(C)CCCCCN(C)C1=Nc2ccccc2C(CC(=O)NCc2ccc(F)cc2)N1c1ccc(C2CCCCC2)cc1 (configuration not stated) | 400 | 4400 |  | 
CN(C)CCN1CCN(C2=Nc3ccccc3C(CC(=O)NCc3ccc(F)cc3)N2c2ccc(-c3ccccc3)cc2)CC1 (configuration not stated) | 2600 | ≥ 10000 |  | 
